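These data come from cells grown in 96-well plates and exposed to compound for 48 hours at five concentrations. GI50 is the concentration that inhibits growth by half.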 Calls of active or inactive are those of the source. No stated cut-off is given here; in the data, active = GI50 up to about 1.1 µM and inactive = higher.
Legend:
Experiment in all cases: NCI tumour cell line growth inhibition, 48 h
SR = system: SR
Malme-3M = system: Malme-3M
SK-OV-3 = system: SK-OV-3
LOX IMVI = system: LOX IMVI
UACC-62 = system: UACC-62
SK-MEL-2 = system: SK-MEL-2
M14 = system: M14
HT-29 = system: HT-29
SNB-75 = system: SNB-75
NCI-H522 = system: NCI-H522
SNB-19 = system: SNB-19
EKVX = system: EKVX
786-0 = system: 786-0
MOLT-4 = system: MOLT-4
OVCAR-8 = system: OVCAR-8
A498 = system: A498
HOP-62 = system: HOP-62
SK-MEL-5 = system: SK-MEL-5
OVCAR-4 = system: OVCAR-4

SMILES | GI50 (SR) | GI50 (Malme-3M) | GI50 (SK-OV-3) | GI50 (LOX IMVI) | GI50 (UACC-62) | GI50 (SK-MEL-2) | GI50 (M14) | GI50 (HT-29) | GI50 (SNB-75) | GI50 (NCI-H522) | GI50 (SNB-19) | GI50 (EKVX) | GI50 (786-0) | GI50 (MOLT-4) | GI50 (OVCAR-8) | GI50 (A498) | GI50 (HOP-62) | GI50 (SK-MEL-5) | GI50 (OVCAR-4)
NNC(=O)N/N=C(/CC1(O)C(=O)Nc2ccc(Br)cc21)c1ccccc1 (stereo not given) | 31.6 µM (inactive) | 33.9 µM (inactive) | 40.2 µM (inactive) | 18.1 µM (inactive) | 19.8 µM (inactive) | 34.4 µM (inactive) | 37.6 µM (inactive) | 30.6 µM (inactive) | 9.27 µM (inactive) | 18.8 µM (inactive) | 11.8 µM (inactive) | 22.7 µM (inactive) | 57.3 µM (inactive) | 16.7 µM (inactive) |  |  |  |  | 
Cc1nc(-c2cccnc2)sc1C(=O)/C=C/c1cccc([N+](=O)[O-])c1 |  | > 100 µM (inactive) | > 100 µM (inactive) | > 100 µM (inactive) | > 100 µM (inactive) | > 100 µM (inactive) |  | > 100 µM (inactive) | > 100 µM (inactive) | > 100 µM (inactive) |  | > 100 µM (inactive) | > 100 µM (inactive) | > 100 µM (inactive) | > 100 µM (inactive) | > 100 µM (inactive) | > 100 µM (inactive) | > 100 µM (inactive) | 
CC(=O)NC1=C(NC(C)(C)C)C(=O)c2ccccc2C1=O |  | 19.5 µM (inactive) | 54 µM (inactive) | 16.7 µM (inactive) | 13.7 µM (inactive) | 20.6 µM (inactive) | 17.1 µM (inactive) | 23.2 µM (inactive) | 13.6 µM (inactive) |  | 43.2 µM (inactive) | 28.2 µM (inactive) | 3.4 µM (inactive) | 6.43 µM (inactive) | 20.3 µM (inactive) | 23.1 µM (inactive) | 49.4 µM (inactive) | 18.2 µM (inactive) | 20.1 µM (inactive)
O=C1C(c2ccccc2)=[N+]([O-])c2cc([N+](=O)[O-])ccc21 |  | 20.6 µM (inactive) | > 100 µM (inactive) | 14.3 µM (inactive) | 13.1 µM (inactive) | > 100 µM (inactive) | > 10 µM (inactive) | 21.9 µM (inactive) | 41.9 µM (inactive) | 15.3 µM (inactive) | 57 µM (inactive) | 17.4 µM (inactive) | 26.3 µM (inactive) | 18.7 µM (inactive) | 16.4 µM (inactive) | 27.6 µM (inactive) | > 100 µM (inactive) | 19.3 µM (inactive) | 
COc1cc(OC)c([C@@H]2OC(=O)C3C2C(=O)O[C@H]3c2cc(OC)c(OC)cc2OC)cc1OC (stereo not given in full) | 51.6 µM (inactive) |  | > 100 µM (inactive) |  | > 100 µM (inactive) | > 100 µM (inactive) | > 100 µM (inactive) | > 100 µM (inactive) | > 100 µM (inactive) |  | > 100 µM (inactive) | > 100 µM (inactive) | > 100 µM (inactive) | > 100 µM (inactive) | > 100 µM (inactive) | > 100 µM (inactive) | > 100 µM (inactive) |  | 45.4 µM (inactive)
COc1ccc(CCCNC(=O)Cc2ccccc2CO)cc1OC | > 100 µM (inactive) | > 100 µM (inactive) |  | > 100 µM (inactive) | > 100 µM (inactive) | > 100 µM (inactive) | > 100 µM (inactive) | > 100 µM (inactive) | > 100 µM (inactive) |  | > 100 µM (inactive) | > 100 µM (inactive) | > 100 µM (inactive) | > 100 µM (inactive) | > 100 µM (inactive) | > 100 µM (inactive) | > 100 µM (inactive) | > 100 µM (inactive) | > 100 µM (inactive)
C=CCCC(OCOCCOC)c1cc(C)c(O[Si](C)(C)C(C)(C)C)c(C)c1 (stereo not given) |  | 19.6 µM (inactive) | 25.4 µM (inactive) | 13 µM (inactive) | 10.7 µM (inactive) | 15.8 µM (inactive) | 34.4 µM (inactive) |  | 15.6 µM (inactive) | 11.8 µM (inactive) | 6.32 µM (inactive) | 32.2 µM (inactive) | 14.9 µM (inactive) | 4.4 µM (inactive) | 19.3 µM (inactive) | 22.8 µM (inactive) | 18.7 µM (inactive) | 10.1 µM (inactive) | 
O=C(N/N=C(\c1nc2ccc(Cl)cc2nc1O)C(O)c1ccccc1Cl)c1ccncc1 (stereo not given) |  | > 100 µM (inactive) | > 100 µM (inactive) | > 100 µM (inactive) | > 100 µM (inactive) | > 100 µM (inactive) | > 100 µM (inactive) | > 100 µM (inactive) | > 100 µM (inactive) | > 100 µM (inactive) | > 100 µM (inactive) | > 100 µM (inactive) | > 100 µM (inactive) | > 100 µM (inactive) |  | > 100 µM (inactive) |  | > 100 µM (inactive) | > 100 µM (inactive)
CN(C)CC1(C)CC/C(=C\c2ccc(Cl)cc2)C1=O (stereo not given) |  | > 100 µM (inactive) |  | 31.3 µM (inactive) | 28.5 µM (inactive) | > 100 µM (inactive) | 43.2 µM (inactive) | 44.2 µM (inactive) | 45 µM (inactive) | 17.7 µM (inactive) | 20.3 µM (inactive) |  | 59.2 µM (inactive) | 20.5 µM (inactive) | 40.1 µM (inactive) | 49.1 µM (inactive) | > 100 µM (inactive) | 39 µM (inactive) | 35.2 µM (inactive)
CCCN(CCCCC(NC(C)=O)C(=O)NCc1ccccc1)C(=O)NC (stereo not given) |  | > 100 µM (inactive) | > 100 µM (inactive) | > 100 µM (inactive) | > 100 µM (inactive) | > 100 µM (inactive) | > 100 µM (inactive) | > 100 µM (inactive) | 95.7 µM (inactive) | > 100 µM (inactive) | > 100 µM (inactive) | > 100 µM (inactive) | > 100 µM (inactive) | > 100 µM (inactive) | > 100 µM (inactive) | > 100 µM (inactive) | > 100 µM (inactive) | > 100 µM (inactive) | > 100 µM (inactive)
BrC/C=C/C[P+](c1ccccc1)(c1ccccc1)c1ccccc1 |  | 12.4 µM (inactive) | 86.5 µM (inactive) | 10.4 µM (inactive) | 9.04 µM (inactive) | 10.8 µM (inactive) | 13.7 µM (inactive) |  | 19.8 µM (inactive) | 12.4 µM (inactive) | 21.3 µM (inactive) |  | 10.3 µM (inactive) | > 100 µM (inactive) | 3.91 µM (inactive) |  | 19.6 µM (inactive) | 11.1 µM (inactive) | 41.1 µM (inactive)
Cc1c(N)nc(C(CC(N)=O)NCC(N)C(N)=O)nc1C(=O)NC(C(=O)NC(C)C(O)C(C)C(=O)NC(C(=O)NCCc1nc(-c2nc(C(=O)NCCCNCCCCN)cs2)cs1)C(C)O)C(OC1OC(CO)C(O)C(O)C1OC1OC(CO)C(O)C(OC(N)=O)C1O)c1c[nH]cn1 (stereo not given) |  | 2.07 µM (inactive) | > 10 µM (inactive) | 0.461 µM (active) | 2.71 µM (inactive) | > 10 µM (inactive) | 1.67 µM (inactive) | > 10 µM (inactive) | 0.202 µM (active) | 2.1 µM (inactive) | > 10 µM (inactive) | > 10 µM (inactive) | 4.01 µM (inactive) | 2.94 µM (inactive) | > 10 µM (inactive) | > 10 µM (inactive) | 0.321 µM (active) | 2.43 µM (inactive) | > 6.46 µM (inactive)
Nc1n[n+](-c2ccccc2)no1 |  | 34.7 µM (inactive) | > 100 µM (inactive) | 42 µM (inactive) | 5.37 µM (inactive) |  | 32.7 µM (inactive) | 42.5 µM (inactive) |  | 41.7 µM (inactive) | > 100 µM (inactive) | > 100 µM (inactive) | 52.1 µM (inactive) | 13.3 µM (inactive) | 80 µM (inactive) | 46 µM (inactive) | 31.6 µM (inactive) | 52.7 µM (inactive) | > 100 µM (inactive)
CCOC(=O)[C@@]12CCC(C1=O)[C@](C)(O)C[C@@H]2c1ccccc1 |  | 37.6 µM (inactive) | 29.1 µM (inactive) | 48.6 µM (inactive) | 29.7 µM (inactive) | 38.1 µM (inactive) | 27.7 µM (inactive) | 29.2 µM (inactive) | 33 µM (inactive) | 19 µM (inactive) | 43.7 µM (inactive) | 57.1 µM (inactive) | 23.1 µM (inactive) | 30.5 µM (inactive) | 54.8 µM (inactive) |  | 71.1 µM (inactive) | 35.2 µM (inactive) | > 100 µM (inactive)
C1=CC=C2NCCSCC/N=C3/C=CC=CC=C3NCCSCC/N=C\2C=C1 |  | > 100 µM (inactive) | > 100 µM (inactive) | > 100 µM (inactive) | > 100 µM (inactive) | > 100 µM (inactive) | > 100 µM (inactive) | > 100 µM (inactive) | > 100 µM (inactive) | > 100 µM (inactive) | > 100 µM (inactive) | > 100 µM (inactive) | > 100 µM (inactive) | > 100 µM (inactive) | > 100 µM (inactive) | > 100 µM (inactive) | > 100 µM (inactive) | > 100 µM (inactive) | > 100 µM (inactive)
CCc1ccccc1NC(=O)c1cccc([N+](=O)[O-])c1O |  | 24.4 µM (inactive) | 25 µM (inactive) | 16.3 µM (inactive) | 9.93 µM (inactive) |  | 47.5 µM (inactive) | 26.5 µM (inactive) | 20.9 µM (inactive) | 21 µM (inactive) | 41.7 µM (inactive) | 30.8 µM (inactive) | 71.6 µM (inactive) | 18.6 µM (inactive) | 46.7 µM (inactive) | 25.3 µM (inactive) | 19 µM (inactive) | 8.89 µM (inactive) | 16.7 µM (inactive)
CN(C)CCC1(C2=CCCC2)CC/C(=C\c2ccccc2Cl)C1=O (stereo not given) |  | 14.5 µM (inactive) |  |  | 14.6 µM (inactive) | 13.5 µM (inactive) | 12.1 µM (inactive) | 6.44 µM (inactive) |  |  | 14.3 µM (inactive) | 15.6 µM (inactive) | 12.6 µM (inactive) | 4.57 µM (inactive) | 15 µM (inactive) | 14.1 µM (inactive) |  | 12.8 µM (inactive) | 11.9 µM (inactive)

Reference: ChEMBL document CHEMBL1201862, “PubChem BioAssay data set” (2004)
